Experimental data from PMC6522510 (Nature Communications, 2019).
Structures can show the parent of a compound that is named as a salt. Where two headings read alike, the source gives them in different places.

Columns and labels:
Set-up in all cases: species or system AML cell lines (8); Primary HTS, single concentration about 10 uM, Cell Titer Glo viability; log10 luminescence, per cent inhibition relative to cycloheximide control
Details in all cases: 72 h, inhibitor
MOLM-13 = tested on: MOLM-13
ML-2 = tested on: ML-2
U937 = tested on: U937
CMK = tested on: CMK
CMS = tested on: CMS
M07e = tested on: M07e
MV4-11 = tested on: MV4-11
CHRF288-11 = tested on: CHRF288-11
[1] = relative to cycloheximide control, log10 luminescence, MOLM-13 %inh, 10 µM
[2] = relative to cycloheximide control, log10 luminescence, ML-2 %inh, 10 µM
[3] = relative to cycloheximide control, log10 luminescence, U937 %inh, 10 µM
[4] = relative to cycloheximide control, log10 luminescence, CMK %inh, 10 µM
[5] = relative to cycloheximide control, log10 luminescence, CMS %inh, 10 µM
[6] = relative to cycloheximide control, log10 luminescence, M07e %inh, 10 µM
[7] = relative to cycloheximide control, log10 luminescence, MV4-11 %inh, 10 µM
[8] = relative to cycloheximide control, log10 luminescence, CHRF288-11 %inh, 10 µM
[9] = relative to cycloheximide control, log10 luminescence

Compound | MOLM-13 %inh (MOLM-13; [1]) [%] | ML-2 %inh (ML-2; [2]) [%] | U937 %inh (U937; [3]) [%] | CMK %inh (CMK; [4]) [%] | CMS %inh (CMS; [5]) [%] | M07e %inh (M07e; [6]) [%] | MV4-11 %inh (MV4-11; [7]) [%] | CHRF288-11 %inh (CHRF288-11; [8]) [%] | MOLM-13 %inh (MOLM-13; [9]) [%] | ML-2 %inh (ML-2; [9]) [%] | U937 %inh (U937; [9]) [%] | CMK %inh (CMK; [9]) [%] | CMS %inh (CMS; [9]) [%] | M07e %inh (M07e; [9]) [%] | MV4-11 %inh (MV4-11; [9]) [%] | CHRF288-11 %inh (CHRF288-11; [9]) [%] | other results
CCCCNc1cc(C(=O)O)cc(S(N)(=O)=O)c1Oc1ccccc1 [SJ000285893-8, BUMETANIDE] | 2.916 | -0.3091 | 0.292 | -0.903 | 2.258 | 45.31 | 2.839 | -1.756 | – | – | – | – | – | – | – | – | –
NC[C@H]1CC[C@H](C(=O)O)CC1 [SJ000285898-4, TRANEXAMIC ACID] | – | – | – | – | – | – | – | – | -3.616 | 1.648 | -1.275 | -3.012 | -4.095 | 0.2149 | -0.1986 | -2.741 | –
CC(=O)OC/C=C(C)/C=C/C=C(C)/C=C/C1=C(C)CCCC1(C)C [SJ000285933-3, RETINYL ACETATE] | – | – | – | – | – | – | – | – | 0.103 | 2.843 | 8.926 | 13.65 | 2.535 | 2.591 | 3.526 | 13.53 | –
CCOC(=O)OC(C)OC(=O)[C@@H]1N2C(=O)[C@@H](NC(=O)[C@H](N)c3ccccc3)[C@H]2SC1(C)C (stereo partly shown) [SJ000285946-4, BACAMPICILLIN HYDROCHLORIDE] | – | – | – | – | – | – | – | – | 6.375 | -0.2443 | -1.553 | -5.01 | -1.038 | -1.353 | -1.634 | -3.08 | –
CN(C)CCC=C1c2ccccc2C=Cc2ccccc21 [SJ000285960-7, CYCLOBENZAPRINE HYDROCHLORIDE] | – | – | – | – | – | – | – | – | -2.604 | 3.717 | 7.437 | 3.38 | -1.125 | 2.233 | 2.11 | 66.65 | –
CCn1cc(C(=O)O)c(=O)c2cc(F)c(N3CCNCC3)nc21 [SJ000285962-4, ENOXACIN] | – | – | – | – | – | – | – | – | -2.8 | 32.21 | -0.8348 | 15.64 | 4.313 | 7.045 | 40.28 | 7.607 | –
CC(=O)/N=c1/sc(S(N)(=O)=O)nn1C [SJ000285971-4, METHAZOLAMIDE] | 1.468 | 1.069 | -0.6609 | -8.28 | -3.008 | -2.489 | -0.9248 | -2.381 | – | – | – | – | – | – | – | – | –
CC(=O)/N=c1/sc(S(N)(=O)=O)nn1C [SJ000285971-5, METHAZOLAMIDE] | 0.5424 | 3.001 | -1.329 | -2.598 | -3.489 | -1.211 | -3.681 | -3.176 | – | – | – | – | – | – | – | – | –
COc1ccc(OC)c(C(O)CNC(=O)CN)c1 (stereo not shown) [SJ000285975-4, MIDODRINE HYDROCHLORIDE] | – | – | – | – | – | – | – | – | -0.9656 | 3.423 | -2.394 | -2.727 | -2.587 | 0.8303 | 0.5881 | 5.586 | –
CC(=O)CCCCn1c(=O)c2c(ncn2C)n(C)c1=O [SJ000285992-7, PENTOXIFYLLINE] | – | – | – | – | – | – | – | – | 0.7772 | -1.777 | -1.659 | 2.352 | -0.2539 | -1.002 | 4.085 | -2.356 | –
CCC(=O)O[C@]1(C(=O)CCl)[C@@H](C)C[C@H]2[C@@H]3CCC4=CC(=O)C=C[C@]4(C)[C@@]3(F)[C@@H](O)C[C@@]21C [SJ000286006-4, CLOBETASOL PROPIONATE] | – | – | – | – | – | – | – | – | 8.361 | 4.272 | 16.72 | 12.78 | 4.642 | 3.893 | 4.125 | 12.55 | –
OCCN1CCN(CCCN2c3ccccc3Sc3ccc(Cl)cc32)CC1 [SJ000286016-7, PERPHENAZINE] | -1.496 | -0.4093 | -2.208 | 1.286 | 1.171 | 0.915 | 1.352 | -1.811 | – | – | – | – | – | – | – | – | –
OCCN1CCN(CCCN2c3ccccc3Sc3ccc(Cl)cc32)CC1 [SJ000286016-8, PERPHENAZINE] | 2.324 | 2.921 | 5.279 | 10.21 | 3.223 | 5.089 | 2.594 | 40.76 | – | – | – | – | – | – | – | – | –
OC(Cn1cncn1)(Cn1cncn1)c1ccc(F)cc1F [SJ000286024-3, FLUCONAZOLE] | – | – | – | – | – | – | – | – | -1.868 | -1.511 | 1.624 | -0.02108 | -4.097 | -2.445 | 0.2312 | -3.189 | –
CC[C@H]1OC(=O)[C@H](C)[C@@H](O[C@H]2C[C@@](C)(OC)[C@@H](O)[C@H](C)O2)[C@H](C)[C@@H](O[C@@H]2O[C@H](C)C[C@H](N(C)C)[C@H]2O)[C@](C)(O)C[C@@H](C)[C@@H]2N[C@@H](COCCOC)O[C@H]([C@H]2C)[C@]1(C)O [SJ000286040-4, DIRITHROMYCIN] | – | – | – | – | – | – | – | – | – | – | – | – | – | – | – | – | MOLM-13 %inh (MOLM-13; 10 µM): 5.018%; ML-2 %inh (ML-2; 10 µM): 0.363%; U937 %inh (U937; 10 µM): 3.436%; CMK %inh (CMK; 10 µM): -6.058%; CMS %inh (CMS; 10 µM): -2.389%; M07e %inh (M07e; 10 µM): -2.158%; MV4-11 %inh (MV4-11; 10 µM): -1.547%; CHRF288-11 %inh (CHRF288-11; 10 µM): 3.605%
CC[C@H]1OC(=O)[C@H](C)[C@@H](O[C@H]2C[C@@](C)(OC)[C@@H](O)[C@H](C)O2)[C@H](C)[C@@H](O[C@@H]2O[C@H](C)C[C@H](N(C)C)[C@H]2O)[C@](C)(O)C[C@@H](C)[C@@H]2N[C@@H](COCCOC)O[C@H]([C@H]2C)[C@]1(C)O [SJ000286040-5, DIRITHROMYCIN] | – | – | – | – | – | – | – | – | – | – | – | – | – | – | – | – | MOLM-13 %inh (MOLM-13; 10 µM): -2.496%; ML-2 %inh (ML-2; 10 µM): -0.7146%; U937 %inh (U937; 10 µM): -1.919%; CMK %inh (CMK; 10 µM): -5.982%; CMS %inh (CMS; 10 µM): -0.1114%; M07e %inh (M07e; 10 µM): -2.366%; MV4-11 %inh (MV4-11; 10 µM): -3.548%; CHRF288-11 %inh (CHRF288-11; 10 µM): 3.137%
CC[C@H]1OC(=O)[C@H](C)[C@@H](O[C@H]2C[C@@](C)(OC)[C@@H](O)[C@H](C)O2)[C@H](C)[C@@H](O[C@@H]2O[C@H](C)C[C@H](N(C)C)[C@H]2O)[C@](C)(OC)C[C@@H](C)C(=O)[C@H](C)[C@@H](O)[C@]1(C)O [SJ000286061-3, CLARITHROMYCIN] | 2.582 | 2.326 | 1.585 | 1.841 | -1.005 | 0.43 | 1.904 | -0.08051 | – | – | – | – | – | – | – | – | –
